Measurements taken from patent US4124369A, “Combating fungi and controlling plant growth with 1-amido-1-azolyl-2-hydroxy- or -keto-alkanes” (Bayer Aktiengesellschaft, priority 1976, dated 1978).

tested on: soya bean plants; experiment: Influence on growth/soya beans; assay type: in vivo; conditions: 0.05%; footnote *
From the text: influence on growth/soya beans
(§1) Solvent: 10 parts by weight of methanol
(§2) Emulsifier: 2 parts by weight of polyoxyethylene sorbitan monolaurate
To prepare a suitable preparation of active compound, 1 part by weight of active compound was mixed with the stated amounts of solvent and emulsifier and the mixture was made up to the desired concentration with water.
Young soya bean plants, in the stage in which the first secondary leaves had unfolded, were sprayed with the preparation of active compound until dripping wet. After 3 weeks, the additional growth was measured and the inhibition of growth in % of the additional growth of the control plants was calculated. 0% denoted growth corresponding to that of the control plants. Positive values characterized promotion of growth compared to the control plants while negative values corrrespondingly indicated an inhibition of growth.
The active compounds, concentrations of the active compounds and results can be seen from the table which follows: […]

Row | SMILES | Influence on growth, note on leaves
1 | CC(C)(C)C(=O)C(NC(=O)COc1ccc(Cl)cc1Cl)n1ccnc1 (centres unmarked) [drawing 38] | dark green leaves

tested on: Podosphaera leucotricha; experiment: Podosphaera test (apple)/protective; assay type: in vivo; conditions: 0.00125% active compound; protective; 10 days after inoculation; 0% = no infection, 100% = completely infected
Method: podosphaera test (apple)/protective Solvent: 4.7 parts by weight of acetone Emulsifier: 0.3 part by weight of alkylaryl polyglycol ether Water: 95 parts by weight The amount of active compound required for the desired concentration of the active compound in the spray liquid was mixed with the stated amount of solvent, and the concentrate was diluted with the stated amount of water which contained the stated additions. Young apple seedlings in the 4-6 leaved stage were sprayed with the spray liquid until dripping wet. The plants remained in a greenhouse for 24 hours at 20° C. and at a relative atmospheric humidity of 70%. They were then inoculated by dusting with conidia of the apple powdery mildew causative organism (Podosphaera leucotricha) and placed in a greenhouse at a temperature of 21°-23° C. and at a relative atmospheric humidity of about 70%. 10 days after the inoculation, the infection of the seedlings was determined. The ratings obtained were converted to percent infection. 0% meant no infection: 100% meant that the plants were completely infected. The active compounds, the concentrations of the active compounds and the results can be seen from the following table: […]

Row | SMILES | Infection in % at an active compound concentration of 0.00125% [%]
2 | c1ccc(C(c2ccccc2)(c2ccccc2)n2cncn2)cc1 [A, triphenyl-1,2,4-triazol-1-yl-methane, reference compound] | 85
3 | CC(C)(C)C(=O)C(NC(=O)c1ccc(Cl)cc1)n1cncn1 (centres unmarked) [Compound 1, 1-(p-chlorobenzamido)-3,3-dimethyl-1-(1,2,4-triazol-1-yl) butan-2-one] | 50

tested on: barley plants; experiment: Inhibition of growth/barley; assay type: in vivo; conditions: 0.05%; 100% = growth stopped, 0% = growth of untreated control
From the text: Inhibition of growth/barley
as §1, §2
To prepare a suitable preparation of active compound, 1 part by weight of active compound was mixed with the stated amount of solvent and emulsifier and the mixture was made up to the desired concentration with water.
Young barley plants, in the 2-leaf stage, were sprayed with the preparation of active compound until dripping wet. After the untreated control plants had reached a growth height of about 60 cm, the additional growth of all the plants was measured and the inhibition of growth in % of the additional growth of the control plants was calculated. 100% meant that growth had stopped and 0% denoted a growth corresponding to that of the untreated control plants.
The active compounds, concentrations of the active compounds and results can be seen from the table which follows.

Row | SMILES | Inhibition of growth in % [%]
4 | CC(C)(C)C(=O)C(NC(=O)COc1ccc(Cl)cc1Cl)n1ccnc1 (centres unmarked) [drawing 41] | 45

tested on: tobacco plants; experiment: Inhibition of the growth of side shoots of tobacco; assay type: in vivo; conditions: 0.2%; after 3 weeks; 100% = absence of side shoots
From the text: inhibition of the growth of side shoots of tobacco
as §1
Emulsifier: 2 parts by weight of polyoxyethylene-sorbitan monolaurate
To prepare a suitable preparation of active compound, 1 parts by weight of active compound was mixed with the stated amounts of solvent and emulsifier and the mixture was made up to the desired concentration with water.
The shoot tips of about 50 cm high tobacco plants were broken off. On the following day, the plants were sprayed with the preparations of active compound until dripping wet. After 3 weeks, the side shoots which had formed during this time were broken off. All the side shoots of one treatment were weighed. The weight of the side shoots of the treated plants was compared with the weight of the side shoots of the untreated control plant. 100% inhibition denoted the absence of side shoots and 0% denoted a growth of side shoots which correspond to that of the control plants.
The active compounds, the concentrations of the active compounds and results can be seen from the table which follows: […]

Row | SMILES | Inhibition in % (growth of side shoots) [%]
5 | CC(C)(C)C(=O)C(NC(=O)COc1ccc(Cl)cc1Cl)n1ccnc1 (centres unmarked) [drawing 42] | 97

tested on: Erysiphe graminis var. hordei; experiment: Shoot treatment test/powdery mildew of cereals/protective; assay type: in vivo, Erysiphe graminis var. hordei on barley (Amsel variety); conditions: 0.01% by weight active compound in the spray liquor; protective; 6 days; 0% = no infection
Method: shoot treatment test/powdery mildew of cereals/protective (leaf-destructivemycosis)
To produce a suitable preparation of active compound, 0.25 part by weight of active compound was taken up in 25 parts by weight of dimethylformamide and 0.06 part by weight of emulsifier alkylarylpolyglycol ether and then 975 parts by weight of water were added. The concentration was diluted with water to the desired final concentration of the spray liquor.
To test for protective activity, single-leaved young barley plants of the Amsel variety were sprayed with the preparation of active compound until dew-moist. After drying, the barley plants were dusted with spores of Erysiphe graminis var. hordei.
After 6 days' dwell time of the plants at a temperature of 21°-22° C. and 80-90% atmospheric humidity the occurrence of mildew pustules on the plants was evaluated. The degree of infection was expressed as a percentage of the infection of the untreated control plants. 0% denoted no infection and 100% denoted that same degree of infection as in the case of the untreated control.
The active compounds, the concentrations of the active compounds in the spray liquor and degrees of infection can be seen from the table which follows: […]

Row | SMILES | Infection in % of the untreated control [%]
6 | CC(C)(C)C(=O)C(NC(=O)COc1ccccc1)n1cncn1 (centres unmarked) | 32.5
7 | c1ccc(C(c2ccccc2)(c2ccccc2)n2cncn2)cc1 [drawing 13, reference compound] | 100.0
8 | CC(C)(C)C(=O)C(NC(=O)c1ccc(Cl)cc1)n1cncn1 (centres unmarked) [drawing 14] | 0.0

same assay, conditions: 0.025% by weight active compound in the spray liquor; protective; 6 days; 0% = no infection

Row | SMILES | Infection in % of the untreated control [%]
9 | CC(C)(C)C(=O)C(NC(=O)c1ccccc1)n1ccnc1 (centres unmarked) | 12.5
10 | CC(C)(C)C(=O)C(NC(=O)c1cc(Cl)ccc1Cl)n1cncn1 (centres unmarked) | 50.0
11 | CC(C)(C)C(=O)C(NC(=O)c1cc(Cl)ccc1Cl)n1ccnc1 (centres unmarked) | 21.3
12 | CC(C)(C)C(=O)NC(C(=O)C(C)(C)C)n1ccnc1 (centres unmarked) | 30.0
13 | c1ccc(C(c2ccccc2)(c2ccccc2)n2cncn2)cc1 [drawing 13, reference compound] | 100.0
14 | CC(C)(C)C(=O)C(NC(=O)c1ccccc1Cl)n1cncn1 (centres unmarked) [drawing 16] | 50.0
15 | CC(C)(C)C(=O)C(NC(=O)c1ccccc1)n1cncn1 (centres unmarked) [drawing 18] | 500
16 | CC(C)(C)C(O)C(NC(=O)c1ccccc1Cl)n1ccnc1 (centres unmarked) [drawing 19] | 28.8
17 | CC(C)(C)C(=O)C(NC(=O)c1cccc(Cl)c1)n1ccnc1 (centres unmarked) [drawing 20] | 28.8
18 | CC(C)(C)C(O)C(NC(=O)c1cc(Cl)ccc1Cl)n1cncn1 (centres unmarked) [drawing 23] | 40.0
19 | CC(C)(C)C(=O)C(NC(=O)Cc1ccccc1)n1cncn1 (centres unmarked) [drawing 24] | 40.0
20 | CC(C)(C)C(O)C(NC(=O)c1ccccc1)n1cncn1 (centres unmarked) [drawing 25] | 40.0

tested on: Erysiphe graminis var. hordei; experiment: Powdery mildew of barley test/systemic (seed treatment); assay type: in vivo, Erysiphe graminis var. hordei on barley; conditions: 25% by weight active compound in the dressing, 10 g dressing/kg of seed, systemic, 0% = no infection
Method: powdery mildew of barley (Erysiphe graminis var.hordei)/systemic (fungal disease of cereal shoots) The active compounds were used as pulverulent seed treatment agents. They were prepared by extending the particular active compound with a mixture of equal parts by weight of talc and kieselguhr to give a finely pulverulent mixture of the desired concentration of active compound. For the treatment of seed, barley seed was shaken with the extended active compound in a closed glass bottle. The seed was sown at the rate of 3 × 12 grains in flowerpots, 2 cm deep in a mixture of one part by volume of Fruhstorfer standard soil and one part by volume of quartz sand. The germination and emergence took place under favorable conditions in a greenhouse. 7 days after sowing, when the barley plants have developed their first leaf, they were dusted with fresh spores of Erysiphe graminis var. hordei and grown on at 21°-22° C. and 80-90% relative atmospheric humidity and 16 hours' exposure to light. The typical mildew pustules formed on the leaves over the course of 6 days. The degree of infection was expressed as a percentage of the infection of the untreated control plants. Thus, 0% denoted no infection and 100% denoted the same degree of infection as in the case of the untreated control. […] The active compounds and concentrations of active compound in the seed treatment agent, as well as the amount used of the latter, and the percentage infection with mildew can be seen from the table which follows: […]

Row | SMILES | Infection in % of the untreated control [%]
21 | CC(C)(C)C(=O)C(NC(=O)c1ccccc1Cl)n1ccnc1 (centres unmarked) | 55.0
22 | CC(C)(C)C(=O)C(NC(=O)Cc1ccccc1)n1ccnc1 (centres unmarked) | 50.0
23 | CC(C)(C)C(=O)NC(C(=O)C(C)(C)C)n1cncn1 (centres unmarked) | 25.0
24 | c1ccc(C(c2ccccc2)(c2ccccc2)n2cncn2)cc1 [drawing 27, reference compound] | 88.8
25 | CC(C)(C)C(=O)C(NC(=O)c1ccccc1Cl)n1cncn1 (centres unmarked) [drawing 29] | 0.0
26 | CC(C)(C)C(=O)C(NC(=O)c1ccccc1)n1cncn1 (centres unmarked) [drawing 30] | 0.0
27 | CC(C)(C)C(O)C(NC(=O)c1ccccc1Cl)n1ccnc1 (centres unmarked) [drawing 31] | 58.8
28 | CC(C)(C)C(=O)C(NC(=O)c1cccc(Cl)c1)n1ccnc1 (centres unmarked) [drawing 32] | 50.0
29 | CC(C)(C)C(O)C(NC(=O)c1cc(Cl)ccc1Cl)n1cncn1 (centres unmarked) [drawing 33] | 25.0
30 | CC(C)(C)C(=O)C(NC(=O)Cc1ccccc1)n1cncn1 (centres unmarked) [drawing 34] | 0.0
31 | CC(C)(C)C(O)C(NC(=O)c1ccccc1)n1cncn1 (centres unmarked) [drawing 35] | 17.5

tested on: Fusicladium dendriticum; experiment: Fusicladium test (apple)/protective; assay type: in vivo, Fusicladium dendriticum (apple scab) on apple seedlings; conditions: 0.0025% active compound; protective; 15 days after inoculation; 0% = no infection, 100% = completely infected
Method: fusicladium test (apple)/Protective Solvent: 4.7 parts by weight of acetone Emulsifier: 0.3 part by weight of alkylaryl polyglycol ether Water: 95 parts by weight. The amount of active compound required for the desired concentration of the active compound in the spray liquid was mixed with the stated amount of solvent, and the concentrate was diluted with the stated amount of water which contained with stated additions. Young apple seedlings in the 4-6 leaved stage were sprayed with the spray liquid until dripping wet. The plants remained in a greenhouse for 24 hours at 20° C. and at a relative atmospheric humidity of 70%. They were then inoculated with an aqueous conidium suspension of the apple scab causative organism (Fusicladium dendriticum) and incubated for 18 hours in a humidity chamber at 18°-20° C. and at a relative atmospheric humidity of 100%. The plants were then brought into a greenhouse for 14 days. 15 days after inoculation, the infection of the seedlings was determined. The ratings obtained were converted to percent infection. 0% meant no infection; 100% meant that the plants were completely infected. The active compounds, the concentrations of the active compounds and the results can be seen from the following table: […]

Row | SMILES | Infection in % at an active compound concentration of 0.0025% [%]
32 | c1ccc(C(c2ccccc2)(c2ccccc2)n2cncn2)cc1 [A, triphenyl-1,2,4-triazol-1-yl-methane, reference compound] | 83
33 | CC(C)(C)C(=O)C(NC(=O)c1ccc(Cl)cc1)n1cncn1 (centres unmarked) [Compound 1, 1-(p-chlorobenzamido)-3,3-dimethyl-1-(1,2,4-triazol-1-yl) butan-2-one] | 50

tested on: fungi; experiment: not given; conditions: German Offenlegungsschrift 1,795,249; cited from earlier work

Row | SMILES | fungicidal activity (prior art)
34 | c1ccc(C(c2ccccc2)(c2ccccc2)n2cncn2)cc1 [A, triphenyl-1,2,4-triazol-1-yl-methane, reference compound] | good fungicidal activity

same assay, conditions: especially low amounts and low concentrations; cited from earlier work

Row | SMILES | action at low amounts and low concentrations (prior art)
35 | c1ccc(C(c2ccccc2)(c2ccccc2)n2cncn2)cc1 [A, triphenyl-1,2,4-triazol-1-yl-methane, reference compound] | not always entirely satisfactory
